Laboratory results published in US20250313535A1, “ALPHA 4 BETA 7 INTEGRIN MODULATORS AND USES THEREOF” (DICE MOLECULES SV, INC., priority 2022, published 2025).
Read-outs that look alike come from different tables or passages of the source.

Experiments:
α4β7 integrin = α4β7 integrin (Homo sapiens (Human), UniProt P13612+P26010); assay: Integrin Adhesion Assay: Protocol 4 (MAdCAM-coated plate, RPMI-8866 cells with stable LOF mutation of the ITGB1 gene); assay type: cell-based
Summary of the method: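 RPMI-8866 cells with CRISPR/Cas9 knockout of ITGB1 (2×10^6/mL) were added to MAdCAM-coated wells with compound (1% DMSO) in HEPES/NaCl buffer with 1 mM MnCl2, 0.1 mM CaCl2 and 1% BSA, then incubated 1 h at 37 °C. After four washes, adherent cells were quantified by CellTiter-Glo luminescence. Percent inhibition versus DMSO and control compound was fitted to 4-parameter curves.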

α4β1 integrin = α4β1 integrin (Homo sapiens (Human), UniProt P05556+P13612); assay: Integrin Adhesion Assay: Protocol 5 (VCAM-coated plate, RPMI-8866 cells with stable LOF mutation of the ITGB7 gene); assay type: cell-based
Sequence of α4β1 integrin (P13612 34-1032): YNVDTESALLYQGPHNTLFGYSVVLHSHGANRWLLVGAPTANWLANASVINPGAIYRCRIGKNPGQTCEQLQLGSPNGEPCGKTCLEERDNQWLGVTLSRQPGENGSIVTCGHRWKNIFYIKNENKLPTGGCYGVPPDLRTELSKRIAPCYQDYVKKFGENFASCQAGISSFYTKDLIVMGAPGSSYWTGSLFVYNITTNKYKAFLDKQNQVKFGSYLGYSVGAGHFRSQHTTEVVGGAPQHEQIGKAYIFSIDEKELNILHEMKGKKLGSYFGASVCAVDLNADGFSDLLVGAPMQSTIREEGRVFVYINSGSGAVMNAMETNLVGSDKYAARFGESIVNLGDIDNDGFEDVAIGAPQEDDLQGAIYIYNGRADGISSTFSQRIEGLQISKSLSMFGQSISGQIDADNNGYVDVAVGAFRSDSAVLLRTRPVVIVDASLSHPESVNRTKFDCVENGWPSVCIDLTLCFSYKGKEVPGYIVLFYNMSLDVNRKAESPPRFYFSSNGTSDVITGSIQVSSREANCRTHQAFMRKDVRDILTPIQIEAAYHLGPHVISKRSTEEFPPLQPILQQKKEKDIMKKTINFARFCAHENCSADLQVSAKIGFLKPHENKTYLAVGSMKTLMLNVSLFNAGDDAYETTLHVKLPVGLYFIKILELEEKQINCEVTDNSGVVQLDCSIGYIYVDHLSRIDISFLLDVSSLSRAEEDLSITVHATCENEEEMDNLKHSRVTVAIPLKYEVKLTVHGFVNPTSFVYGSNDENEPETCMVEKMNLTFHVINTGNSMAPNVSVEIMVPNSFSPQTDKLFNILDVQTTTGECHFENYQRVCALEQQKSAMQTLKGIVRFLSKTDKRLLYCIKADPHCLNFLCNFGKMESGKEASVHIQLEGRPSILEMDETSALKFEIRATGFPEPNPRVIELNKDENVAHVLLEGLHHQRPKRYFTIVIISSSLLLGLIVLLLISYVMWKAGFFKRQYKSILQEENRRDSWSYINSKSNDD
Sequence of α4β1 integrin (P05556 21-798): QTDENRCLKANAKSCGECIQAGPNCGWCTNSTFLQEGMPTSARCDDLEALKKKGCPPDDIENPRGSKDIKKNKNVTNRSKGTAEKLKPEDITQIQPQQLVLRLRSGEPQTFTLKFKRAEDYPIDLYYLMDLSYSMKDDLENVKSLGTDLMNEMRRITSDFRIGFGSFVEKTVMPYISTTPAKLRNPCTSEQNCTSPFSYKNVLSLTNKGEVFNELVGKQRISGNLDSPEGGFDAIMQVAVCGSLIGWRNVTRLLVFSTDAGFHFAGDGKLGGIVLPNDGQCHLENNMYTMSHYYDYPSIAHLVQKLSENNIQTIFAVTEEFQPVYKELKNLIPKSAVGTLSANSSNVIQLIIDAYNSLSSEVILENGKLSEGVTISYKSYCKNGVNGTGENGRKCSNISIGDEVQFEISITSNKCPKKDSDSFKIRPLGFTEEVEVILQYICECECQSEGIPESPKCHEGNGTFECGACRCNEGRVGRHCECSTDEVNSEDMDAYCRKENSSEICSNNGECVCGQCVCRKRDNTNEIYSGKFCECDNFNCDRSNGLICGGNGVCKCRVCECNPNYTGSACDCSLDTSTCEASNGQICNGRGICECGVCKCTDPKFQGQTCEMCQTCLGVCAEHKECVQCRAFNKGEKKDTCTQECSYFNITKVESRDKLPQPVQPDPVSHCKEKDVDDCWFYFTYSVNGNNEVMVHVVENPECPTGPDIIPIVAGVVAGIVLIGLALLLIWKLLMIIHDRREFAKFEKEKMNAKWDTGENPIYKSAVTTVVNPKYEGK
Summary of the method: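 RPMI-8866 B cells with CRISPR/Cas9 ITGB7 knockout (clonal, verified by flow cytometry) adhered to VCAM-coated wells for 1 h at 37° C in HEPES/NaCl buffer with 1 mM MnCl2, 0.1 mM CaCl2, 1% BSA, 1% DMSO. Bound cells quantified by CellTiter-Glo luminescence after washing; % inhibition versus DMSO and control, 4-parameter fit.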

[1] = RPMI-8866 cells with stable LOF mutation of the ITGB1 gene, read-out: Mean IC50 α4β7 KO^a
[2] = RPMI-8866 cells with stable LOF mutation of the ITGB7 gene, read-out: Mean IC50 α4β1 KO^b
[3] = Protocol 4, RPMI-8866 cells with LOF mutation of ITGB1, MAdCAM, read-out: Mean IC50 α4β7 KO
[4] = Protocol 5, RPMI-8866 cells with LOF mutation of ITGB7, VCAM, read-out: Mean IC50 α4β1 KO

Sequence of α4β7 integrin (P13612 34-1032): as the sequence (P13612 34-1032) above
Sequence of α4β7 integrin (P26010 20-798): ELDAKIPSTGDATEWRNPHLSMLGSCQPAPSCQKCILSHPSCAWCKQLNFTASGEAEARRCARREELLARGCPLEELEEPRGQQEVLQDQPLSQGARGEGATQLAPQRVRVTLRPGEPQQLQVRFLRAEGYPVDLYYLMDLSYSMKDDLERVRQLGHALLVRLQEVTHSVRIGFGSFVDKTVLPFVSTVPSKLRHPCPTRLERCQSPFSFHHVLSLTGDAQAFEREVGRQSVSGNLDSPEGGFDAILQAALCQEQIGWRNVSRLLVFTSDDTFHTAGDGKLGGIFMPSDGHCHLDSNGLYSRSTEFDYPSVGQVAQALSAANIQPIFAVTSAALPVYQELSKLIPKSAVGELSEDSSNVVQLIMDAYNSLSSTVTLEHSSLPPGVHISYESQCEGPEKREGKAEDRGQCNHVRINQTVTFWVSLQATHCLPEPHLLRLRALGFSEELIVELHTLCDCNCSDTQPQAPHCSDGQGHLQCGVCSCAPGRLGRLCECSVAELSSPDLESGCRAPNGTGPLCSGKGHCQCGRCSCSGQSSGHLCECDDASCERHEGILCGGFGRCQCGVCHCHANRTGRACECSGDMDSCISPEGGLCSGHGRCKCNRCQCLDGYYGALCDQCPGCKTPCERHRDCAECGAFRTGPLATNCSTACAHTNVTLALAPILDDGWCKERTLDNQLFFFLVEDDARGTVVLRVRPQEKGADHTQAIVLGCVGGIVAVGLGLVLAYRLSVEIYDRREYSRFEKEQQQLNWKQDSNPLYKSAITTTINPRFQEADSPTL

Structure (SMILES) | IC50 (α4β7 integrin; [1]) | IC50 (α4β1 integrin; [2]) | IC50 (α4β7 integrin; [3]) | IC50 (α4β1 integrin; [4])
CC1OCCC1N1CCC(C(=O)N[C@@H](Cc2cccc3c(-c4c(C(F)(F)F)c5ccccc5n(C)c4=O)cccc23)C(=O)O)(C(F)(F)F)CC1 (stereo partly drawn) [Compound 509] | < 10 nM | 100 to 1000 nM | – | –
Cn1c(=O)c(-c2cccc3c(C[C@H](NC(=O)C4(C(F)(F)F)CCN(C5CCOC(C(F)(F)F)C5)CC4)C(=O)O)cccc23)c(C(F)(F)F)c2ccccc21 (stereo partly drawn) [Compound 514] | 10 to 100 nM | > 1000 nM | – | –
O=C(O)[C@H](Cc1cccc2c(-c3nccc4c(CN5CCC6(CCCCC6)CC5)cccc34)cccc12)NC(=O)C1(C(F)(F)F)CCN(CC(F)(F)F)CC1 [Compound 661] | 10 to 100 nM | > 1000 nM | – | –
COc1ccc(CN2CCCC(C)C2)c(OC)c1-c1cccc2c(C[C@H](NC(=O)c3c(C)cccc3F)C(=O)O)cccc12 (stereo partly drawn) [Compound 643] | < 10 nM | 100 to 1000 nM | – | –
COc1cc2c(cc1-c1cccc3c(C[C@H](NC(=O)c4c(C)cccc4F)C(=O)O)cccc13)CN(CC(F)F)CC2 [Compound 1006] | – | – | 10 to 100 nM | 100 to 1000 nM
COc1cccc(CCN2CCC[C@H](F)C2)c1-c1cccc2c(C[C@H](NC(=O)C3(C(F)(F)F)CCN(CC(F)(F)F)CC3)C(=O)O)cccc12 [Compound 964] | – | – | 10 to 100 nM | > 1000 nM
CCOCc1cc(CN2CCCCC2)c(-c2cccc3c(C[C@H](NC(=O)c4c(C)cccc4F)C(=O)O)cccc23)c(OC)c1 [Compound 1000] | – | – | < 10 nM | 100 to 1000 nM
CC(C)c1cccc(F)c1C(=O)N[C@@H](Cc1cccc2c(-c3c(C(F)(F)F)c4cc(CN5CCCCC5)ccc4n(C)c3=O)cccc12)C(=O)O [Compound 1029] | – | – | < 10 nM | 10 to 100 nM
Cn1c(=O)c(-c2cccc3c(C[C@H](NC(=O)C4(C(F)(F)F)CCN([C@H](C5CC5)C(F)(F)F)CC4)C(=O)O)cccc23)c(C(F)(F)F)c2ccccc21 [Compound 485] | > 1000 nM | > 1000 nM | – | –
O=C(O)[C@H](Cc1cccc2c(-c3cccc4c3OCCO4)cccc12)NC(=O)C1(C(F)(F)F)CCN(CC(F)(F)F)CC1 [Compound 766] | – | – | 10 to 100 nM | > 1000 nM
O=C(O)[C@H](Cc1cccc2c(-c3cc(C(F)(F)F)c(CN4CCCCC4)cn3)cccc12)NC(=O)C1(C(F)(F)F)CCN(CC(F)(F)F)CC1 [Compound 891] | – | – | 100 to 1000 nM | > 1000 nM
COc1ccc(CCN2CCCCC2)c(C(F)(F)F)c1-c1cccc2c(C[C@H](NC(=O)C3(C(F)(F)F)CCN(CC(F)(F)F)CC3)C(=O)O)cccc12 [Compound 727] | – | – | < 10 nM | 10 to 100 nM
COc1ccc(CN(C)C)c(OC)c1-c1cccc2c(C[C@H](NC(=O)c3c(F)cccc3C(F)(F)F)C(=O)O)cccc12 [Compound 479] | < 10 nM | 100 to 1000 nM | – | –
O=C(N[C@@H](Cc1cccc2c(-c3cccc4cccnc34)cccc12)C(=O)O)c1c(F)cccc1F [Compound 500] | > 1000 nM | > 1000 nM | – | –
O=C(O)[C@H](Cc1cccc2c(-c3ncc(CN4CCC5(CCC5)C4)c4ccccc34)cccc12)NC(=O)C1(C(F)(F)F)CCN(CC(F)(F)F)CC1 [Compound 886] | – | – | < 10 nM | > 1000 nM
COc1ccc(CN2CCCC2C)c(OC)c1-c1cccc2c(C[C@H](NC(=O)c3c(C)cccc3F)C(=O)O)cccc12 (stereo partly drawn) [Compound 633] | < 10 nM | 10 to 100 nM | – | –
COC(=O)[C@H](Cc1cccc2c(-c3c(OC)ccc(CN(C)C)c3C(F)(F)F)cccc12)NC(=O)OC(C)(C)C [Compound 551] | < 10 nM | 100 to 1000 nM | – | –
Cc1cc(CN2CCCCC2)cnc1-c1cccc2c(C[C@H](NC(=O)C3(C(F)(F)F)CCN(CC(F)(F)F)CC3)C(=O)O)cccc12 [Compound 880] | – | – | < 10 nM | > 1000 nM
COc1c(CN2CCCCC2)ccc(Cl)c1-c1cccc2c(C[C@H](NC(=O)c3c(C)cccc3F)C(=O)O)cccc12 [Compound 1013] | – | – | < 10 nM | 100 to 1000 nM
Cn1c(=O)c(-c2cccc3c(C[C@H](NC(=O)C4(C)CC5CCC(C4)N5CC(F)(F)F)C(=O)O)cccc23)c(C(F)(F)F)c2ccccc21 (stereo partly drawn) [Compound 481] | 10 to 100 nM | 100 to 1000 nM | – | –
CCN(CC)Cc1ccc(OC)c(-c2cccc3c(C[C@H](NC(=O)c4c(C)cccc4F)C(=O)O)cccc23)c1OC [Compound 622] | < 10 nM | 100 to 1000 nM | – | –
COc1cc2c(c(OC)c1-c1cccc3c(C[C@H](NC(=O)C4(C(F)(F)F)CCN(CC(F)(F)F)CC4)C(=O)O)cccc13)CN(C)CC2 [Compound 474] | < 10 nM | 100 to 1000 nM | – | –
Cc1cccc(F)c1C(=O)N[C@@H](Cc1cccc2c(-c3c(C(F)(F)F)c4cc(CCN(C)C)ccc4n(C)c3=O)cccc12)C(=O)O [Compound 706] | – | – | < 10 nM | 100 to 1000 nM

Structure (SMILES) | IC50 (α4β7 integrin; [1]) | IC50 (α4β1 integrin; [2]) | IC50 (α4β7 integrin; [3]) | IC50 (α4β1 integrin; [4])
COc1c(CN2CCCCC2)ccc(OC(F)(F)F)c1-c1cccc2c(C[C@H](NC(=O)c3c(C)cccc3F)C(=O)O)cccc12 [Compound 704] | – | – | 10 to 100 nM | > 1000 nM
COc1ccc(CN2CCC3(CC2)CC3)c(OC)c1-c1cccc2c(C[C@H](NC(=O)c3c(C)cccc3F)C(=O)O)cccc12 [Compound 623] | < 10 nM | 100 to 1000 nM | – | –
O=C(O)[C@H](Cc1cccc2c(-c3ncc(CN4CCC(F)CC4)c4ccccc34)cccc12)NC(=O)C1(C(F)(F)F)CCN(CC(F)(F)F)CC1 [Compound 871] | – | – | 10 to 100 nM | > 1000 nM
O=C(O)[C@H](Cc1cccc2c(-c3nccc4c(CN5CCCCC5)cccc34)cccc12)NC(=O)C1(C(F)(F)F)CCN([C@H]2COCC2(F)F)CC1 [Compound 641] | < 10 nM | 100 to 1000 nM | – | –
O=C(O)[C@H](Cc1cccc2c(-c3ncc(CN4CCC[C@@H](F)C4)c4ccccc34)cccc12)NC(=O)C1(C(F)(F)F)CCN(CC(F)(F)F)CC1 [Compound 855] | – | – | 10 to 100 nM | > 1000 nM
CN(C)Cc1ccc(-c2cccc3c(C[C@H](NC(=O)C4(C(F)(F)F)CCN(CC(F)(F)F)CC4)C(=O)O)cccc23)c2cnccc12 [Compound 695] | – | – | < 10 nM | > 1000 nM
COc1cc(CN2CCCCC2)cnc1-c1cccc2c(C[C@H](NC(=O)c3c(C)cccc3F)C(=O)O)cccc12 [Compound 1018] | – | – | < 10 nM | > 1000 nM
COc1ccc(CN2CCC(F)(F)CC2)c(OC)c1-c1cccc2c(C[C@H](NC(=O)c3c(C)cc4cn(CC(F)(F)F)nc4c3F)C(=O)O)cccc12 [Compound 664] | 100 to 1000 nM | > 1000 nM | – | –
O=C(O)[C@H](Cc1cccc2c(-c3ncc(CN4CCCCC4)c4ccccc34)cccc12)NC(=O)C1(C(F)(F)F)CCN(C2CC(F)(F)C2)CC1 [Compound 681] | < 10 nM | 100 to 1000 nM | – | –
COc1cc(CN2CCC(C(F)(F)F)CC2)cnc1-c1cccc2c(C[C@H](NC(=O)C3(C(F)(F)F)CCN(CC(F)F)CC3)C(=O)O)cccc12 [Compound 925] | – | – | < 10 nM | > 1000 nM
COc1cc(CN2CCCCC2)ccc1-c1cccc2c(C[C@H](NC(=O)c3c(C)cccc3F)C(=O)O)cccc12 [Compound 666] | 10 to 100 nM | > 1000 nM | – | –
COc1ccc(CN(C)C)c(OC)c1-c1cccc2c(C[C@H](NC(=O)c3c(Cl)cccc3Cl)C(=O)O)cccc12 [Compound 612] | < 10 nM | 100 to 1000 nM | – | –
COc1ccc(CN2CCC(F)(F)CC2)c(OC)c1-c1cccc2c(C[C@H](NC(=O)C3(C(F)(F)F)CCN(C4COC4)CC3)C(=O)O)cccc12 [Compound 611] | < 10 nM | > 1000 nM | – | –
Cn1c(=O)c(-c2cccc3c(C[C@H](NC(=O)C4(C(F)(F)F)CCN(C(c5ccccc5)C(F)(F)F)CC4)C(=O)O)cccc23)c(C(F)(F)F)c2ccccc21 (stereo partly drawn) [Compound 516] | > 1000 nM | > 1000 nM | – | –
COc1ccc(CN2CC(F)(F)C2)c(OC)c1-c1cccc2c(C[C@H](NC(=O)c3c(C)cccc3F)C(=O)O)cccc12 [Compound 627] | 10 to 100 nM | > 1000 nM | – | –
COc1cnc(CN2CCC3(CCCCC3)CC2)c(OC)c1-c1cccc2c(C[C@H](NC(=O)c3c(C)cccc3F)C(=O)O)cccc12 [Compound 1039] | – | – | < 10 nM | > 1000 nM
O=C(O)[C@H](Cc1cccc2c(-c3ncc(CN4CCCC4)c4ccccc34)cccc12)NC(=O)C1(C(F)(F)F)CCN(CC(F)(F)F)CC1 [Compound 918] | – | – | < 10 nM | > 1000 nM
Cc1cccc(F)c1C(=O)N[C@@H](Cc1cccc2c(-c3c(C(F)(F)F)c4cc(CN5CCCCC5)ccc4n(C)c3=O)cccc12)C(=O)O [Compound 1030] | – | – | < 10 nM | 100 to 1000 nM
COc1ccc(CN2CCC[C@@H](F)C2)c(OC)c1-c1cccc2c(C[C@H](NC(=O)C3(C(F)(F)F)CCN(CC(F)(F)F)CC3)C(=O)O)cccc12 [Compound 841] | – | – | < 10 nM | > 1000 nM
O=C(O)[C@H](Cc1cccc2c(-c3ncc(CN4CCC[C@H](F)C4)c4ccccc34)cccc12)NC(=O)C1(C(F)(F)F)CCN(CC(F)(F)F)CC1 [Compound 852] | – | – | 10 to 100 nM | > 1000 nM
O=C(O)[C@H](Cc1cccc2c(-c3ccc(CN4CCCCC4)c4ccncc34)cccc12)NC(=O)C1(C(F)(F)F)CCN(CC(F)(F)F)CC1 [Compound 555] | < 10 nM | > 1000 nM | – | –
CN1CCC(Cc2ccc3ccnc(-c4cccc5c(C[C@H](NC(=O)C6(C(F)(F)F)CCN(CC(F)(F)F)CC6)C(=O)O)cccc45)c3c2)CC1 [Compound 990] | – | – | < 10 nM | > 1000 nM
